Experimental data from patent publication US11135178B2, “Thymol and carvacol for use in medicine” (UNIVERSITY OF IOWA RESEARCH FOUNDATION, priority 2014, dated 2021).

Assays:
C2C12 myotubes [1] = test: Fura-2 Ca2+ ratios in C2C12 myotubes, functional screen with TRPV agonists; format: cell-based; conditions: for intracellular (cytosolic) Ca2+ rise: Fura-2 Ca2+ ratios
Procedure: FIG. 2. Fura-2 Ca^2+ Ratios in C2C12 myotubes in response to known activators of TRPV1 (Capsaicin), TRPV3 (Thymol, Carvacrol, 2-APB), and TRPV4 (GSK 101). ** p<0.01 compared to vehicle Ca^2+ response.
To determine the physiological significance of these TRPV ion channels in skeletal muscle Ca^2+ homeostasis, a functional screen for the magnitude of intracellular Ca^2+ rise was performed using known agonists for TRPV1 (Capsaicin), TRPV3 (Carvacrol/Thymol/2-APB) and TRPV4 (GSK101) in C2C12 myotubes (FIG. 2). C2C12 myoblasts were grown to confluency and then differentiated into myotubes by culturing in Dulbecco's Modified Eagles Medium (DMEM) with 2% horse serum for 5 days. Measurement of Fura-2 Ca2+ ratios in C2C12 myotubes was performed as described previously in cultured adipocytes (Ye L., et al., TRPV4 is a regulator of adipose oxidative metabolism, inflammation, and energy homeostasis. Cell. 2012; 151:96-110).

IGF-1 = test: qRT-PCR transcriptional screen in C2C12 myotubes: IGF-1; format: cell-based; conditions: 48 hrs
Procedure: (§1) FIG. 5. […] A. fold change after 48 hrs carvacrol (0, 5, and 100 μM, from left to right for each grouping); and B. thymol (0, 5, and 50 μM, from left to right for each grouping).
(§2) A qRT-PCR based transcriptional screen was then performed to assess for induction of the classical genes associated with exercise-induced changes in skeletal muscle, including growth, and enhanced endurance (FIG. 5). Transcriptional analysis of candidate genes was performed as described previously (Sah R., et al., The Timing of Myocardial Trpm7 Deletion during Cardiogenesis Variably Disrupts Adult Ventricular Function, Conduction and Repolarization. Circulation. 2013; Sah R., et al., Ion channel-kinase TRPM7 is required for maintaining cardiac automaticity. Proc Natl Acad Sci USA. 2013; 110:E3037-46) using the following primers: […]

[2] = tested on: flexor digitorum brevis (FDB) muscle fibers; test: Confocal calcium imaging (Fluo-4AM) of freshly isolated FDB muscle fibers; format: cell-based, mouse; conditions: for effects on Ca2+ cycling: freshly isolated muscle fibers, carvacrol 100, 200, 500 μM, thymol 50, 100, 200 μM
Procedure: FIG. 3. Confocal calcium imaging (Fluo-4AM) of freshly isolated mouse flexor digitorum brevis (FDB) muscle fibers in response to sequential applications of carvacrol (A: 100, 200 and 500 μM) and thymol (B: 50, 100 and 200 μM).
These findings were further validated in freshly isolated mouse flexor digitorum brevis (FDB) muscle fibers (FIG. 3) to confirm the result in primary muscle cells. Primary skeletal muscle fibers were isolated from flexor digitorum brevis (FDB) muscle. In brief, FDB muscles were dissected and mechanically cleaned of connective tissue in a standard Ringer's solution containing (in mM): 146 NaCl, 5 KCl, 2 CaCl2, 1 MgCl2, and 10 HEPES, pH 7.4 with NaOH. Muscles were then shaken for 40 min at 37° C. in 1 mg/ml of collagenase A (Roche) dissolved in Ringer's solution. After collagenase treatment, individual FDB fibers were dissociated by gentle trituration using Pasteur pipettes of decreasing bore size. […] All experiments were conducted at room temperature on fibers obtained within 8 h of isolation. Confocal calcium imaging of FDB fibers were performed as described previously in cardiac myocytes but at room temperature (23° C.) (Sah R., et al., Ion channel-kinase TRPM7 is required for maintaining cardiac automaticity. Proc Natl Acad Sci USA. 2013; 110:E3037-46).

C2C12 myotubes [3] = test: Myotube hypertrophy by immunostaining and confocal imaging (myotube diameter); format: cell-based; conditions: 50 μM for 48 hours
Procedure: FIG. 4. A. Confocal images immunostained C2C12 myotubes (staining skeletal actin and Topro-3 nuclear stain) incubated for 48 hrs in vehicle (left) or carvacrol 50 μM (right). B. quantification of myotube width. NT—not treated, Vehicle—DMSO.
It was next examined whether the increase in cytosolic Ca^2+ induced by this class of compounds could induce cellular hypertrophy in vitro in C2C12 myotubes as would occur with augmented Ca^2+ release during exercise. Immunostaining and confocal imaging of C2C12 myotubes were performed as described previously in cardiac myocytes (Sah R., et al., The Timing of Myocardial Trpm7 Deletion during Cardiogenesis Variably Disrupts Adult Ventricular Function, Conduction and Repolarization. Circulation. 2013).

PGC1α = test: qRT-PCR transcriptional screen in C2C12 myotubes: PGC1α; format: cell-based; conditions: 48 hrs
Procedure: as §1, §2

C57/B6 mice [4] = test: Core body temperature by infra-red thermal imaging after mild exercise; format: in vivo, mouse; conditions: sedentary C57/B6 mice, 20 mg/kg/day oral gavage, 5 weeks
Procedure: FIG. 7. Top: Representative thermal images of vehicle (left) and thymol (right) treated mice. Bottom: Mean data of temperature of upper and lower body in vehicle-treated vs thymol treated mice.
(§3) Based on these strong in vitro data, in vivo studies were then performed to determine both safety and efficacy of using thymol and/or carvacrol to mimic the effects of exercise on skeletal muscle function. […] Accordingly, the pilot studies were limited to thymol alone and treated sedentary C57/B6 mice with either vehicle (Sunflower oil) or Thymol (20 mg/kg/day) by oral gavage for 5 weeks and then assessed exercise capacity by treadmill testing, core body temperature by infra-red thermal imaging, and skeletal muscle hypertrophy by muscle weight. […] J Gen Physiol. 2014; 143:119-34)) after mild exercise (FIG. 7) and an increase in gastrocnemius muscle weight (weight bearing muscles—FIG. 8).

C57/B6 mice [5] = test: Skeletal muscle hypertrophy by muscle weight; format: in vivo, mouse; conditions: sedentary C57/B6 mice, 20 mg/kg/day oral gavage, 5 weeks
Procedure: FIG. 8: Skeletal muscle weight in sedentary C57/B6 mice after 5 weeks of treatment with either vehicle or thymol (for each group, the left bar represents vehicle and the right bar represents thymol).
as §3

TRPV3 knock-out mice = test: In vivo experiments repeated in TRPV3 knock-out mice; set-up: species or system mouse; conditions: TRPV3 KO mice, 20 mg/kg/day, 5 weeks
Procedure: FIG. 9: Exercise tolerance measured by treadmill testing of TRPV3 KO mice before and after 5 weeks of either vehicle or thymol (20 mg/kg/day). A. Exercise protocol and tolerance after vehicle or thymol. B. Mean exercise tolerance pre and post treatment.
as §3

C57/B6 mice [6] = test: Exercise tolerance by treadmill testing of sedentary mice; format: in vivo, mouse; conditions: 20 mg/kg/day oral gavage, 5 weeks
Procedure: FIG. 6. Exercise tolerance measured by treadmill testing of C57/B6 mice before and after 5 weeks of either vehicle or thymol (20 mg/kg/day). A. Exercise protocol and tolerance after vehicle or thymol. B. Mean exercise tolerance pre and post treatment.
as §3

Structure (SMILES) | intracellular (cytosolic) Ca2+ rise (C2C12 myotubes [1]) | induction of IGF-1 (IGF-1) | effects on Ca2+ cycling [2] | induction of PGC1α (PGC1α) | other results
NCCOB(c1ccccc1)c1ccccc1 [2-APB, reference compound] | reproducible and reversible increases |  |  |  | 
COc1cc(CNC(=O)CCCC/C=C/C(C)C)ccc1O [Capsaicin, reference compound] | essentially no effect |  |  |  | 
CC(C)C[C@H](NC(=O)c1cc2ccccc2s1)C(=O)N1CCN(C(=O)[C@H](CO)NS(=O)(=O)c2ccc(Cl)cc2Cl)CC1 [GSK101, reference compound] | essentially no effect |  |  |  | 
Cc1ccc(C(C)C)cc1O [carvacrol, 2-methyl-5-isopropylphenol] | reproducible and reversible increases | ~8 fold | clear effects | 13.8 fold | myotube hypertrophy (increase in myotube diameter) (C2C12 myotubes [3]): significant myotube hypertrophy
Cc1ccc(C(C)C)c(O)c1 [thymol, 2-isopropyl-5-methylphenol] | reproducible and reversible increases | ~4 fold | clear effects | 3 fold | core body temperature after mild exercise (C57/B6 mice [4]): significant increase; gastrocnemius muscle weight (C57/B6 mice [5]): increase; augmented thermogenesis in TRPV3 knock-out mice (TRPV3 knock-out mice): abolished; enhanced exercise capacity in TRPV3 knock-out mice (TRPV3 knock-out mice): abolished; gastrocnemius hypertrophy in TRPV3 knock-out mice (TRPV3 knock-out mice): abolished; potency at augmenting cytosolic Ca2+ relative to carvacrol ([2]; freshly isolated mouse FDB fibers): approximately twice as potent as carvacrol; augmented exercise capacity over vehicle treated mice (C57/B6 mice [6]): 37%; potency at augmenting cytosolic Ca2+ relative to carvacrol (C2C12 myotubes [1]): approximately twice as potent as carvacrol
